Molecules are shown by their SMILES.

The results in this text go back to ChEMBL document CHEMBL5506074, “Discovery and Optimization of Tetrahydroisoquinoline Derivatives To Enhance Lysosome Biogenesis as Preclinical Candidates for the Treatment of Alzheimer's Disease” (J Med Chem, 2024).

Common to all, as to format: functional
The nature of experiment [1]: Induction of TFEB nuclear translocation in human HeLa cells expressing EGFP at 30 uM measured at 3 hrs by fluorescence microscopic analysis.
Experiment [2] in a line: Induction of TFEB nuclear translocation in human HeLa cells expressing EGFP at 10 uM measured at 6 hrs by fluorescence microscopic analysis.
Experiment [3] can be described thus: Induction of TFEB nuclear translocation in human HeLa cells expressing EGFP at 10 uM measured at 3 hrs by fluorescence microscopic analysis.
A short description of experiment [4]: Induction of TFEB nuclear translocation in human HeLa cells expressing EGFP at 30 uM measured at 6 hrs by fluorescence microscopic analysis.

On to `OCn1cc(CCC2c3cc4c(cc3CCN2CC2CCOCC2)OCO4)c2ccccc21` (centres undefined), for which the Activity in experiment [1] is listed as 8%; in experiment [2] it was 5%; in experiment [3], 5%; in experiment [4] it was 8%.

In the case of `COc1cc2c(cc1OC)C(CCc1c[nH]c3ccc(C)cc13)N(CC1CCOCC1)CC2` (centres undefined), the Activity is on record as 92% in experiment [1], 53% in experiment [2], 38% in experiment [3] and 91% in experiment [4].

As to `Brc1ccc2[nH]cc(CCC3c4cc5c(cc4CCN3CC3CCOCC3)OCO5)c2c1` (centres undefined), the Activity in experiment [1] was determined as 85%; in experiment [2], 30%; in experiment [3], 10%; in experiment [4], 95%.

As to `CCOc1cc2c(cc1OC)CCN(CC1CCOCC1)C2CCc1c[nH]c2ccccc12` (centres undefined), the Activity turned out to be 75% in experiment [1], 28% in experiment [2], 17% in experiment [3] and 82% in experiment [4].

With `COc1cc2c(cc1OC)C(CCc1c[nH]c3ccc(F)cc13)N(CC1CCOCC1)CC2` (centres undefined), the Activity in experiment [1] was 88%; in experiment [2] it was 47%; in experiment [3], 22%; in experiment [4], 95%.

For `c1ccc2c(CCC3c4cc5c(cc4CCN3Cc3cncnc3)OCO5)c[nH]c2c1` (centres undefined), the Activity in experiment [1] is 20%; in experiment [2], 10%; in experiment [3], 10%; in experiment [4], 20%.

For `CCC(=O)N1CCN(c2ccc(-n3c(=O)ccc4cnc5ccc(-c6cnc7ccccc7c6)cc5c43)cc2C(F)(F)F)CC1` [TORIN1], the Activity in experiment [1], in experiment [2], in experiment [3] and in experiment [4] was 100% throughout.

Turning to `c1ccc2c(CCC3c4cc5c(cc4CCN3CCC3CCOCC3)OCO5)c[nH]c2c1` (centres undefined), the Activity worked out at 65% in experiment [1], 5% in experiment [2], 5% in experiment [3] and 80% in experiment [4].

Turning to `Cc1ccc2[nH]cc(CCC3c4cc5c(cc4CCN3CC3CCOCC3)OCO5)c2c1` (centres undefined), the Activity in experiment [1] is on record as 83%; in experiment [2] it was 30%; in experiment [3] it was 20%; in experiment [4] it was 85%.

As to `Fc1ccc2[nH]cc(CC[C@H]3c4cc5c(cc4CCN3CC3CCOCC3)OCO5)c2c1`, the Activity in experiment [1] is recorded as 90%; in experiment [2], 60%; in experiment [3], 56%; in experiment [4], 98%.

Turning to `c1ccc2c(c1)ccn2CCC1c2cc3c(cc2CCN1CC1CCOCC1)OCO3` (centres undefined), the Activity is given as 8% in experiment [1], 5% in experiment [2], 5% in experiment [3] and 5% in experiment [4].

`c1ccc2c(CCC3c4cc5c(cc4CCN3CC3CCCCC3)OCO5)c[nH]c2c1` (centres undefined): the Activity turned out to be 11% in experiment [1], 8% in experiment [2], 7% in experiment [3] and 42% in experiment [4].

In the case of `COc1cc2c(cc1OC)C(CCc1c[nH]c3ccc(Br)cc13)N(CC1CCOCC1)CC2` (centres undefined), the Activity in experiment [1] turned out to be 89%; in experiment [2], 63%; in experiment [3], 53%; in experiment [4], 94%.

As to `CC(C)CN1CCc2cc3c(cc2C1CCc1c[nH]c2ccccc12)OCO3` (centres undefined), the Activity is 74% in experiment [1], 20% in experiment [2], 20% in experiment [3] and 82% in experiment [4].

For the compound `c1ccc2[nH]c(CCC3c4cc5c(cc4CCN3CC3CCOCC3)OCO5)cc2c1` (centres undefined), the Activity was 39% in experiment [1], 5% in experiment [2], 5% in experiment [3] and 39% in experiment [4].

On to `c1ccc2c(CC[C@H]3NCCc4cc5c(cc43)OCO5)c[nH]c2c1`, for which the Activity amounted to 76% in experiment [1], 23% in experiment [2], 18% in experiment [3] and 77% in experiment [4].
